Data from US20240336574A1 (LATIGO BIOTHERAPEUTICS, INC., priority 2021, published 2024).

What was measured:
[1] = molecular target: T1, recombinant human NaV1.8 stably transfected HEK cells (Homo sapiens, UniProt Q9Y5Y9); assay: Compound profiling on NaV1.8, human NaV1.8 cell line, SyncroPatch384PE automated patch clamp assay (Example 115, third set of compounds, Table 27); type: cell-based; conditions: human NaV1.8 HEK cells, Table 27 (third set of compounds)
T1 construct: expressed in transfected cells; host or cells: HEK cells, stably transfected
Method: Compound Profiling on NaV1.8 Human NaV1.8 Cell Line SyncroPatch384PE Assay
Compounds were tested on recombinant human NaV1.8 stably transfected HEK cells using the SyncroPatch384PE system, an automated patch clamp device. Cells were cultured at 37° C./5% CO2 in DMEM medium supplemented with GlutaMAX I, NEAA 1%, FBS 10% and seeded in T175 flasks. Cells were cultured at 30° C. one day prior to recording sodium currents. On the day of the recordings, cells were detached with 0.05% Trypsin-EDTA, resuspended in serum free DMEM medium and placed into the SyncroPatch384PE 6° C. pre-cooled cell hotel and shaken at 200 rpm. Intracellular solution (IC) contained, in mM: 10, CsCl; 110, CsF; 20, EGTA; 10, HEPES. Extracellular solution (EC) contained, in mM: 140, NaCl; 4, KCl; 5, Glucose; 10, HEPES; 2, CaCl2; 1, MgCl2. Washing solution contained, in mM: 40, NMDG; 100, NaCl; 4, KCl; 10, Glucose; 10, HEPES; 5, CaCl2; 1, MgCl2.
Compounds were tested in quadruplicates in 0.1% DMSO and 0.030% Pluronic Acid. Compounds were diluted 1:3.33 in EC solution to create a 10-point concentration response curve, spanning a final concentration range from 10-0.0002 μM in the assay plate. Compounds with low nM potency were retested using a lower concentration range (1-0.00002 μM). Each plate contained tetracaine and another tool compound as positive controls. Up to 7 compounds were tested on one plate. 150 μM tetracaine and 0.1% DMSO were used as high and low controls, respectively.
Whole cell patch clamp recordings were conducted according to Nanion's standard procedure for SyncroPatch384PE®. Cells were held at a holding potential of −120 mV. A depolarization step to 10 mV for 30 ms was applied (P1 measurement), followed by a hyperpolarization step to −100 mV for 100 ms. An inactivation step at −40 mV for 10 sec was applied before stepping to −100 mV for 20 ms, followed by a step to 10 mV for 30 ms (P2 measurement) and then back to −100 mV for 30 ms. Sweep interval was 15 sec with a sampling rate of 10 kHz. Following establishment of the whole-cell configuration in EC, two washing steps with reference buffer were performed to stabilize the baseline. Compounds were then applied by the SynchroPatch into each well and the current was recorded for five minutes in EC, followed by application of tetracaine to achieve full block at the end of the experiment. The potency of the compounds was assessed on two read-outs, resting state block (P1 measurement) or inactivated state block (P2 measurement) to obtain IC50 values. Values were normalized to high (tetracaine) and low (DMSO) controls.

[2] = molecular target: T1, recombinant human NaV1.8 stably transfected HEK cells; assay: Compound profiling on NaV1.8, human NaV1.8 cell line, SyncroPatch384PE automated patch clamp assay (Example 102, first set of compounds, Table 16); type: cell-based; conditions: human NaV1.8 HEK cells, Table 16 (first set of compounds)
In short: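 Automated whole-cell patch clamp on HEK cells precultured at 30 °C one day before recording; CsF-based internal, 140 mM NaCl external. 10-point curve, 20–0.001 μM final, 0.1% DMSO, 5 min exposure. IC50 for resting (P1, −120 mV hold) and inactivated (P2, after 10 s at −40 mV) block, normalized to 250 μM tetracaine and DMSO.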

[3] = inactivated state block (P2 measurement), read-out: P2 IC50
[4] = resting state block (P1 measurement), read-out: P1 IC50
[5] = inactivated state block (P2 measurement), read-out: P2IC50
[6] = resting state block (P1 measurement), read-out: P1IC50

T1 sequence (Q9Y5Y9 whole entry): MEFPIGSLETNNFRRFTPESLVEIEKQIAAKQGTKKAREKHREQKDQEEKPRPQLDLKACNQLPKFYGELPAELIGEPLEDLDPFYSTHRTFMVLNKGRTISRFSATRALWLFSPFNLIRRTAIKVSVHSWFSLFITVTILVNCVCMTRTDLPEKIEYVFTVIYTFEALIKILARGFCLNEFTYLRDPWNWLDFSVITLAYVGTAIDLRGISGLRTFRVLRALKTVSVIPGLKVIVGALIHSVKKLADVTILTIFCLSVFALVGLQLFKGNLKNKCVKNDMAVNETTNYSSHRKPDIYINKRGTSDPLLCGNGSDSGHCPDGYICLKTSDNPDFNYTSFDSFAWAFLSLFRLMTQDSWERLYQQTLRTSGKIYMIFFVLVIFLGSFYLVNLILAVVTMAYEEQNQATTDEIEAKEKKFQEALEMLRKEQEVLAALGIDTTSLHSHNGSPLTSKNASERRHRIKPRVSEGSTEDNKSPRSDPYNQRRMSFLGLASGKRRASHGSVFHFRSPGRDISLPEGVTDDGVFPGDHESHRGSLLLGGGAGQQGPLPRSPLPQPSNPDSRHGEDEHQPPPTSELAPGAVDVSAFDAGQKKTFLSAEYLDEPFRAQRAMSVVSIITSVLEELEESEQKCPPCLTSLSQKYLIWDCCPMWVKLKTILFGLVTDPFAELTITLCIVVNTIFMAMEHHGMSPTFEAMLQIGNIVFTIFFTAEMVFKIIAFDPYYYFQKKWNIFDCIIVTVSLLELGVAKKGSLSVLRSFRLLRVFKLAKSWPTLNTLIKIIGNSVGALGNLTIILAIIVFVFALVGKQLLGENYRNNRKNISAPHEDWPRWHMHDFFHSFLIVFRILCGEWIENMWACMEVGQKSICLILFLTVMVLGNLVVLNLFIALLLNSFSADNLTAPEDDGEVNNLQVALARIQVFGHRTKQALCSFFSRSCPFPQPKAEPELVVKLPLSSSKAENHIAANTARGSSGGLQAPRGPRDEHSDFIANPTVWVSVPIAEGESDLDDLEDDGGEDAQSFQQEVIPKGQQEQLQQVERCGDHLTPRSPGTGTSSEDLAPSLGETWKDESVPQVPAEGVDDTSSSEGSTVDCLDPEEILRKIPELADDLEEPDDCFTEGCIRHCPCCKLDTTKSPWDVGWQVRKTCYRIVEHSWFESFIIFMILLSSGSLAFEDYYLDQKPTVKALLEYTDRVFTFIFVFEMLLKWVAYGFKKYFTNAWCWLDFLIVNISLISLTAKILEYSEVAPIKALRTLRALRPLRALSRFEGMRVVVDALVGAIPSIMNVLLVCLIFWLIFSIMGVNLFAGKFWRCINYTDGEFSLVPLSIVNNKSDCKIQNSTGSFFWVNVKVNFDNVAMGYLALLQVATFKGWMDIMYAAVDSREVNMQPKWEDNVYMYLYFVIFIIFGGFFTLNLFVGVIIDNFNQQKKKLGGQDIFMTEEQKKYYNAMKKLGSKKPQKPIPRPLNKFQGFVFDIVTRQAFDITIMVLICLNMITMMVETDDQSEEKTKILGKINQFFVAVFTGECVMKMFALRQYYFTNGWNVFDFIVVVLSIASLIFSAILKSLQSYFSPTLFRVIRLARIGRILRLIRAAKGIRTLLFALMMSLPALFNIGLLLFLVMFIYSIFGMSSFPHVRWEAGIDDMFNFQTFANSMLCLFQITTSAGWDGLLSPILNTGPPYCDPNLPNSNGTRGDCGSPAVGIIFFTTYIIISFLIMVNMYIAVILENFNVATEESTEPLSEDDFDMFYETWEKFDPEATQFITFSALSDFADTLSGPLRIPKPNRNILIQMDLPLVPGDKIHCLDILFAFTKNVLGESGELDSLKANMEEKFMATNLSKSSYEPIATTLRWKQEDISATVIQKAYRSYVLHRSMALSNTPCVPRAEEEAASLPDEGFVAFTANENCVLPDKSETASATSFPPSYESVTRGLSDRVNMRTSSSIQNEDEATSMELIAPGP

**Q.** What does the source list for `Cc1cc(F)ccc1Oc1nnc(C(F)(F)F)cc1C(=O)Nc1cccc(S(C)(=O)=O)n1` [Compound 4]?
**A.** IC50 [1, 3]: > 5 µM; IC50 [1, 4]: > 5 µM

**Q.** What does the source list for `Cc1cc(F)ccc1Oc1nnc(C(F)(F)F)cc1C(=O)Nc1cccc(NS(C)(=O)=O)c1` [Compound 8]?
**A.** IC50 [1, 3]: 1 to 5 µM; IC50 [1, 4]: 1 to 5 µM

**Q.** How did the IC50 [2, 5] turn out when `Cc1c(Oc2ncc(C(F)(F)F)cc2C(=O)Nc2cccc(S(C)(=N)=O)c2)ccc(OC(F)(F)F)c1F` (stereo not drawn) [Compound 1712] was run?
**A.** Its IC50 is no more than 20 nM.

**Q.** And the IC50 [2, 6]?
**A.** The IC50 was no more than 20 nM.

**Q.** Which results are given for `CC(=O)N=[S@](C)(=O)c1cccc(NC(=O)c2cc(C(F)(F)F)cnc2Oc2ccc(F)cc2C)c1` [Compound 1716, N-[3-(N-acetyl-S-methyl-sulfonimidoyl)phenyl]-2-(4-fluoro-2-methyl-phenoxy)-5-(trifluoromethyl)pyridine-3-carboxamide]?
**A.** IC50 [2, 5]: ≤ 20 nM; IC50 [2, 6]: ≤ 20 nM

**Q.** How did the IC50 [2, 5] turn out when `CN=S(C)(=O)c1cccc(NC(=O)c2cc(C(F)(F)F)cnc2Oc2ccc(F)cc2C)c1` (stereo not drawn) [Compound 1717, N-[3-(N,S-dimethylsulfonimidoyl)phenyl]-2-(4-fluoro-2-methyl-phenoxy)-5-(trifluoromethyl)pyridine-3-carboxamide] was run?
**A.** Its IC50 is no more than 20 nM.

**Q.** What about the IC50 [2, 6] of the same compound?
**A.** Its IC50 is no more than 20 nM.

**Q.** Which IC50 [2, 5] does the source give for `CS(=O)(=O)c1cccc(NC(=O)c2cc(C(F)(F)F)cnc2Oc2cccc(S(C)(=O)=O)c2)c1` [Compound 1718, 2-(3-methylsulfonylphenoxy)-N-(3-methylsulfonylphenyl)-5-(trifluoromethyl)pyridine-3-carboxamide] here?
**A.** The IC50 was 200 to 500 nM.

**Q.** What about the IC50 [2, 6] of the same compound?
**A.** Its IC50 is 200 to 500 nM.

**Q.** For `Cc1cc(F)ccc1Oc1ncc(C(F)(F)F)cc1C(=O)Nc1cccc([S@@](C)(=O)=NC(=O)CN(C)C(=O)OC(C)(C)C)c1` [Compound 1719, tert-butyl (R)-(2-(((3-(2-(4-fluoro-2-methylphenoxy)-5-(trifluoromethyl)nicotinamido)phenyl)(methyl)(oxo)-λ^6-sulfaneylidene)amino)-2-oxoethyl)(methyl)carbamate], which IC50 [2, 5] is on record?
**A.** The IC50 was no more than 20 nM.

**Q.** And the IC50 [2, 6]?
**A.** The IC50 was no more than 20 nM.

**Q.** What does the source list for `CNCC(=O)N=[S@](C)(=O)c1cccc(NC(=O)c2cc(C(F)(F)F)cnc2Oc2ccc(F)cc2C)c1` [Compound 1720, (R)-2-(4-fluoro-2-methylphenoxy)-N-(3-(S-methyl-N-(methylglycyl)sulfonimidoyl)phenyl)-5-(trifluoromethyl)nicotinamide]?
**A.** IC50 [2, 5]: ≤ 20 nM; IC50 [2, 6]: ≤ 20 nM

**Q.** Which IC50 [2, 5] does the source give for `COc1cc(C#N)ccc1Oc1ncc(C(F)(F)F)cc1C(=O)NC12CC(C(N)=O)(C1)C2` [Compound 1721, N-(3-carbamoyl-1-bicyclo[1.1.1]pentanyl)-2-(4-cyano-2-methoxy-phenoxy)-5-(trifluoromethyl)pyridine-3-carboxamide] here?
**A.** Its IC50 is 200 to 500 nM.

**Q.** What about the IC50 [2, 6] of the same compound?
**A.** Its IC50 is 200 to 500 nM.

**Q.** Which results are given for `COc1c(Oc2ncc(C(F)(F)F)cc2C(=O)NC23CC(C(N)=O)(C2)C3)ccc(F)c1F` [Compound 1722, N-(3-carbamoyl-1-bicyclo[1.1.1]pentanyl)-2-(3,4-difluoro-2-methoxy-phenoxy)-5-(trifluoromethyl)pyridine-3-carboxamide]?
**A.** IC50 [2, 5]: 200 to 500 nM; IC50 [2, 6]: 200 to 500 nM

**Q.** How did the IC50 [2, 5] turn out when `COc1c(Oc2ncc(C#N)cc2C(=O)Nc2cccc(S(C)(=N)=O)c2)ccc(F)c1F` (stereo not drawn) [Compound 1723, 5-cyano-2-(3,4-difluoro-2-methoxy-phenoxy)-N-[3 (methylsulfonimidoyl)phenyl]pyridine-3-carboxamide] was run?
**A.** Its IC50 is 20 to 40 nM.

**Q.** And the IC50 [2, 6]?
**A.** Its IC50 is 20 to 40 nM.

**Q.** What does the source list for `COc1c(Oc2ncc(C#N)cc2C(=O)Nc2cccc(C(N)=O)c2)ccc(F)c1F` [Compound 1724, N-(3-carbamoylphenyl)-5-cyano-2-(3,4-difluoro-2-methoxy-phenoxy)pyridine-3-carboxamide]?
**A.** IC50 [2, 5]: 40 to 200 nM; IC50 [2, 6]: 40 to 200 nM

**Q.** How did the IC50 [2, 5] turn out when `COc1cc(C#N)ccc1Oc1ncc(C23CCOCC2C3)cc1C(=O)Nc1cccc(S(C)(=N)=O)c1` (stereo not drawn) [Compound 1725, 2-(4-cyano-2-methoxy-phenoxy)-N-[3-(methylsulfonimidoyl)phenyl]-5-(3-oxabicyclo[4.1.0]heptan-6-yl)pyridine-3-carboxamide] was run?
**A.** Its IC50 is 200 to 500 nM.

**Q.** What about the IC50 [2, 6] of the same compound?
**A.** The IC50 was 200 to 500 nM.

**Q.** What does the source list for `COc1cc(C#N)ccc1Oc1ncc(C2=CCOCC2)cc1C(=O)Nc1cccc(S(C)(=N)=O)c1` (stereo not drawn) [Compound 1726, 2-(4-cyano-2-methoxy-phenoxy)-5-(3,6-dihydro-2H-pyran-4-yl)-N-[3-(methylsulfonimidoyl)phenyl]pyridine-3-carboxamide]?
**A.** IC50 [2, 5]: 200 to 500 nM; IC50 [2, 6]: 200 to 500 nM

**Q.** What does the source list for `COc1cc(C#N)ccc1Oc1ncc(C2CCOCC2)cc1C(=O)Nc1cccc(S(C)(=N)=O)c1` (stereo not drawn) [Compound 1727, 2-(4-cyano-2-methoxy-phenoxy)-N-[3-(methylsulfonimidoyl)phenyl]-5-tetrahydropyran-4-yl-pyridine-3-carboxamide]?
**A.** IC50 [2, 5]: 200 to 500 nM; IC50 [2, 6]: 200 to 500 nM

**Q.** Which IC50 [2, 5] does the source give for `Cc1cc(F)ccc1Oc1ncc(Br)c(C)c1C(=O)Nc1cccc([S@@](C)(=N)=O)c1` [Compound 1728, 5-bromo-2-(4-fluoro-2-methylphenoxy)-N-{3-[(S)-imino(methyl)oxo-λ^6-sulfanyl]phenyl}-4-methylpyridine-3-carboxamide] here?
**A.** The IC50 was no more than 20 nM.

**Q.** What about the IC50 [2, 6] of the same compound?
**A.** Its IC50 is no more than 20 nM.

**Q.** For `COc1c(Oc2nc(C(F)(F)F)ccc2C(=O)Nc2cccc(S(C)(=N)=O)c2)ccc(F)c1F` (stereo not drawn) [Compound 1729, 2-(3,4-difluoro-2-methoxy-phenoxy)-N-[3-(methylsulfonimidoyl)phenyl]-6-(trifluoromethyl)pyridine-3-carboxamide], which IC50 [2, 5] is on record?
**A.** The IC50 was no more than 20 nM.

**Q.** What about the IC50 [2, 6] of the same compound?
**A.** The IC50 was no more than 20 nM.

**Q.** Which results are given for `COc1cc(C#N)ccc1Oc1nc(C(F)(F)F)cc(C)c1C(=O)Nc1cccc([S@](C)(=N)=O)c1` [Compound 1730, (R)-2-(4-cyano-2-methoxyphenoxy)-4-methyl-N-(3-(S-methylsulfonimidoyl)phenyl)-6-(trifluoromethyl)nicotinamide]?
**A.** IC50 [2, 5]: ≤ 20 nM; IC50 [2, 6]: ≤ 20 nM

**Q.** Which IC50 [2, 5] does the source give for `Cc1cc(F)ccc1Oc1ncc(Br)c(C)c1C(=O)Nc1cccc([S@](C)(=N)=O)c1` [Compound 1731, (R)-5-bromo-2-(4-fluoro-2-methylphenoxy)-4-methyl-N-(3-(S-methylsulfonimidoyl)phenyl)nicotinamide] here?
**A.** Its IC50 is no more than 20 nM.

**Q.** What about the IC50 [2, 6] of the same compound?
**A.** Its IC50 is no more than 20 nM.

**Q.** Which results are given for `Cc1cc(F)ccc1Oc1nnc(C(F)(F)F)c(N2CCCCC2)c1C(=O)Nc1cccc([S@@](C)(=N)=O)c1` [Compound 1732, (S)-3-(4-fluoro-2-methylphenoxy)-N-(3-(S-methylsulfonimidoyl)phenyl)-5-(piperidin-1-yl)-6-(trifluoromethyl)pyridazine-4-carboxamide]?
**A.** IC50 [2, 5]: 200 to 500 nM; IC50 [2, 6]: 200 to 500 nM

**Q.** What does the source list for `COc1ccc(-c2nnc(Oc3ccc(C#N)cc3OC)c(C(=O)Nc3cccc([S@](C)(=N)=O)c3)c2C)cn1` [Compound 1733, (R)-3-(4-cyano-2-methoxyphenoxy)-6-(6-methoxypyridin-3-yl)-5-methyl-N-(3-(S-methylsulfonimidoyl)phenyl)pyridazine-4-carboxamide]?
**A.** IC50 [2, 5]: 40 to 200 nM; IC50 [2, 6]: 200 to 500 nM

**Q.** Which results are given for `COc1cc(C#N)ccc1Oc1nc(C(F)(F)F)nc(C)c1C(=O)Nc1cccc(C(N)=O)c1` [Compound 1742, N-(3-carbamoylphenyl)-4-(4-cyano-2-methoxy-phenoxy)-6-methyl-2-(trifluoromethyl)pyrimidine-5-carboxamide]?
**A.** IC50 [2, 5]: 20 to 40 nM; IC50 [2, 6]: 40 to 200 nM

**Q.** `COc1cc(C#N)ccc1Oc1nc(C(F)(F)F)nc(C)c1C(=O)Nc1cccc(S(C)(=N)=O)c1` (stereo not drawn) [Compound 1743, 4-(4-cyano-2-methoxy-phenoxy)-6-methyl-N-[3-(methylsulfonimidoyl)phenyl]-2-(trifluoromethyl)pyrimidine-5-carboxamide] was tested. Which IC50 [2, 5] did it give?
**A.** The IC50 was no more than 20 nM.

**Q.** What about the IC50 [2, 6] of the same compound?
**A.** Its IC50 is no more than 20 nM.

**Q.** With `COc1cc(C#N)ccc1Oc1nc(C(F)(F)F)nc(C)c1C(=O)Nc1ccc(C(N)=O)cc1` [Compound 1744, N-(4-carbamoylphenyl)-4-(4-cyano-2-methoxy-phenoxy)-6-methyl-2-(trifluoromethyl)pyrimidine-5-carboxamide] as the compound, how does the IC50 [2, 5] read?
**A.** The IC50 was 40 to 200 nM.

**Q.** And the IC50 [2, 6]?
**A.** The IC50 was 40 to 200 nM.
